In ChEMBL document CHEMBL1156482, “Molecular mechanism of action of monocyclam versus bicyclam non-peptide antagonists in the CXCR4 chemokine receptor” (J Biol Chem, 2007):
Activity calls are given as the source filed them. The calls are words filed in the database; no cut-off is given here.

Tests used:
[1] = test system: C-X-C chemokine receptor type 4 (Homo sapiens), P61073 [V196A]; experiment: (§1) Antagonist activity at human CXCR4 V196A mutant expressed in COS7 cells coexpressing G protein Gqi4myr assessed as inhibition of CXCL12-induced phosphatidylinositol turnover; format: functional, cell-based; details: COS-7
C-X-C chemokine receptor type 4 (Homo sapiens), P61073 [V196A], sequence (P61073 whole entry V196A, the tested form may be a part): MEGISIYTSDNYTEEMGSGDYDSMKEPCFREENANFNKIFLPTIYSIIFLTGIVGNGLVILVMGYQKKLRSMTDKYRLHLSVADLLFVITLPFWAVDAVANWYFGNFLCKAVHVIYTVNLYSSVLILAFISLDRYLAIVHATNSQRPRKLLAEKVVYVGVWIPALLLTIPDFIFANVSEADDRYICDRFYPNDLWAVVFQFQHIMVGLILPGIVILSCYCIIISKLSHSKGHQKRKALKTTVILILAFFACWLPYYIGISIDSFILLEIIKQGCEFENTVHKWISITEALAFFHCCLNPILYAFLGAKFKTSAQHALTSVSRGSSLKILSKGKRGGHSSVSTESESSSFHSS

[2] = molecular target: T1, C-X-C chemokine receptor type 4 (Homo sapiens, UniProt P61073, V196A); experiment: as §1; format: functional, cell-based, COS-7
T1 sequence (P61073 whole entry V196A): as the sequence (P61073 whole entry V196A, the tested form may be a part) above

[3] = test system: Human immunodeficiency virus 1; experiment: Antiviral activity against HIV1 clinical isolate 10 infected in U87.CD4 cells expressing human CXCR4 D171N mutant; format: functional, organism-based; details: Human immunodeficiency virus 1, U87.CD4
[4] = test system: C-X-C chemokine receptor type 4 (Homo sapiens), P61073 [V196A]; experiment: (§2) Displacement of [125I]12G5 antibody from transmembrane domain 5 of human CXCR4 V196A mutant expressed in COS7 cells; format: cell-based; details: COS-7
[5] = molecular target: T1, C-X-C chemokine receptor type 4; experiment: as §2; format: cell-based, COS-7
[6] = test system: Human immunodeficiency virus 1; experiment: Antiviral activity against HIV1 clinical isolate 10 infected in U87.CD4 cells expressing human wild type CXCR4; format: functional, organism-based; details: Human immunodeficiency virus 1, U87.CD4
[7] = molecular target: C-X-C chemokine receptor type 4 (Homo sapiens, UniProt P61073, I284A); experiment: (§3) Antagonist activity at human CXCR4 I284A mutant expressed in COS7 cells coexpressing G protein Gqi4myr assessed as inhibition of CXCL12-induced phosphatidylinositol turnover; format: functional, cell-based, COS-7
[8] = test system: C-X-C chemokine receptor type 4 (Homo sapiens), P61073 [I284A]; experiment: as §3; format: functional, cell-based; details: COS-7
[9] = test system: C-X-C chemokine receptor type 4 (Homo sapiens), P61073 [H281A]; experiment: (§4) Antagonist activity at human CXCR4 H281A mutant expressed in COS7 cells coexpressing G protein Gqi4myr assessed as inhibition of CXCL12-induced phosphatidylinositol turnover; format: functional, cell-based; details: COS-7
C-X-C chemokine receptor type 4 (Homo sapiens), P61073 [H281A], sequence (P61073 whole entry H281A, the tested form may be a part): as the sequence (P61073 whole entry V196A, the tested form may be a part) above, with A196V, H281A counted along it

[10] = molecular target: T2, C-X-C chemokine receptor type 4 (Homo sapiens, UniProt P61073, H281A); experiment: as §4; format: functional, cell-based, COS-7
T2 sequence (P61073 whole entry H281A): as the sequence (P61073 whole entry V196A, the tested form may be a part) above, with A196V, H281A counted along it

[11] = test system: Human immunodeficiency virus 1; experiment: Antiviral activity against HIV1 clinical isolate 10 infected in U87.CD4 cells expressing human CXCR4 H281A mutant; format: functional, organism-based; details: Human immunodeficiency virus 1, U87.CD4
[12] = test system: C-X-C chemokine receptor type 4 (Homo sapiens), P61073 [T287A]; experiment: (§5) Displacement of [125I]12G5 antibody from transmembrane domain 7 of human CXCR4 T287A mutant expressed in COS7 cells; format: cell-based; details: COS-7
C-X-C chemokine receptor type 4 (Homo sapiens), P61073 [T287A], sequence (P61073 whole entry T287A, the tested form may be a part): as the sequence (P61073 whole entry V196A, the tested form may be a part) above, with A196V, T287A counted along it

[13] = molecular target: T3, C-X-C chemokine receptor type 4 (Homo sapiens, UniProt P61073, T287A); experiment: as §5; format: cell-based, COS-7
T3 sequence (P61073 whole entry T287A, the tested form may be a part): as the sequence (P61073 whole entry V196A, the tested form may be a part) above, with A196V, T287A counted along it

[14] = test system: C-X-C chemokine receptor type 4 (Homo sapiens), P61073 [G207F]; experiment: (§6) Displacement of [125I]12G5 antibody from transmembrane domain 5 of human CXCR4 G207F mutant expressed in COS7 cells; format: cell-based; details: COS-7
[15] = molecular target: C-X-C chemokine receptor type 4 (Homo sapiens, UniProt P61073, G207F); experiment: as §6; format: cell-based, COS-7
[16] = test system: C-X-C chemokine receptor type 4 (Homo sapiens), P61073 [H281A]; experiment: Antagonist activity at human CXCR4 H281A mutant expressed in U87.CD4 cells assessed as inhibition of CXCL12-induced calcium mobilization; format: functional, cell-based
[17] = molecular target: C-X-C chemokine receptor type 4 (Homo sapiens, UniProt P61073, Q200W); experiment: (§7) Displacement of [125I]12G5 antibody from transmembrane domain 5 of human CXCR4 Q200W mutant expressed in COS7 cells; format: cell-based, COS-7
[18] = test system: C-X-C chemokine receptor type 4 (Homo sapiens), P61073 [Q200W]; experiment: as §7; format: cell-based; details: COS-7
[19] = test system: C-X-C chemokine receptor type 4 (Homo sapiens), P61073 [E288A]; experiment: (§8) Displacement of [125I]12G5 antibody from transmembrane domain 7 of human CXCR4 E288A mutant expressed in COS7 cells; format: cell-based; details: COS-7
[20] = molecular target: C-X-C chemokine receptor type 4 (Homo sapiens, UniProt P61073, E288A); experiment: as §8; format: cell-based, COS-7
[21] = test system: C-X-C chemokine receptor type 4 (Homo sapiens), P61073 [H281A]; experiment: (§9) Displacement of [125I]12G5 antibody from transmembrane domain 7 of human CXCR4 H281A mutant expressed in COS7 cells; format: cell-based; details: COS-7
[22] = molecular target: T2, C-X-C chemokine receptor type 4; experiment: as §9; format: cell-based, COS-7
[23] = test system: C-X-C chemokine receptor type 4 (Homo sapiens), P61073 [H203A]; experiment: (§10) Antagonist activity at human CXCR4 H203A mutant expressed in COS7 cells coexpressing G protein Gqi4myr assessed as inhibition of CXCL12-induced phosphatidylinositol turnover; format: functional, cell-based; details: COS-7
C-X-C chemokine receptor type 4 (Homo sapiens), P61073 [H203A], sequence (P61073 whole entry H203A): as the sequence (P61073 whole entry V196A, the tested form may be a part) above, with A196V, H203A counted along it

[24] = molecular target: C-X-C chemokine receptor type 4 (Homo sapiens, UniProt P61073, H203A); experiment: as §10; format: functional, cell-based, COS-7
C-X-C chemokine receptor type 4 (Homo sapiens, UniProt P61073, H203A), sequence (P61073 whole entry H203A): as the sequence (P61073 whole entry V196A, the tested form may be a part) above, with A196V, H203A counted along it

[25] = molecular target: T4, C-X-C chemokine receptor type 4 (Homo sapiens, UniProt P61073, A175F); experiment: (§11) Antagonist activity at human CXCR4 A175F mutant expressed in COS7 cells coexpressing G protein Gqi4myr assessed as inhibition of CXCL12-induced phosphatidylinositol turnover; format: functional, cell-based, COS-7
T4 sequence (P61073 whole entry A175F): as the sequence (P61073 whole entry V196A, the tested form may be a part) above, with A175F, A196V counted along it

[26] = test system: C-X-C chemokine receptor type 4 (Homo sapiens), P61073 [A175F]; experiment: as §11; format: functional, cell-based; details: COS-7
C-X-C chemokine receptor type 4 (Homo sapiens), P61073 [A175F], sequence (P61073 whole entry A175F, the tested form may be a part): as the sequence (P61073 whole entry V196A, the tested form may be a part) above, with A175F, A196V counted along it

[27] = molecular target: C-X-C chemokine receptor type 4 (Homo sapiens, UniProt P61073, F172A); experiment: (§12) Displacement of [125I]12G5 antibody from transmembrane domain 4 of human CXCR4 F172A mutant expressed in COS7 cells; format: cell-based, COS-7
[28] = test system: C-X-C chemokine receptor type 4 (Homo sapiens), P61073 [F172A]; experiment: as §12; format: cell-based; details: COS-7
[29] = test system: C-X-C chemokine receptor type 4 (Homo sapiens), P61073 [T287A]; experiment: (§13) Antagonist activity at human CXCR4 T287A mutant expressed in COS7 cells coexpressing G protein Gqi4myr assessed as inhibition of CXCL12-induced phosphatidylinositol turnover; format: functional, cell-based; details: COS-7
[30] = molecular target: T3, C-X-C chemokine receptor type 4; experiment: as §13; format: functional, cell-based, COS-7
[31] = test system: Human immunodeficiency virus 1; experiment: Antiviral activity against HIV1 NL43 infected in U87.CD4 cells expressing human CXCR4 D171N mutant; format: functional, organism-based; details: Human immunodeficiency virus 1, NL43, U87.CD4
[32] = molecular target: C-X-C chemokine receptor type 4 (Homo sapiens, UniProt P61073, F174A); experiment: (§14) Displacement of [125I]12G5 antibody from transmembrane domain 4 of human CXCR4 F174A mutant expressed in COS7 cells; format: cell-based, COS-7
[33] = test system: C-X-C chemokine receptor type 4 (Homo sapiens), P61073 [F174A]; experiment: as §14; format: cell-based; details: COS-7
[34] = test system: Human immunodeficiency virus 1; experiment: Antiviral activity against HIV1 clinical isolate 10 infected U87.CD4 cells expressing human CXCR4 E288A mutant; format: functional, organism-based; details: Human immunodeficiency virus 1, U87.CD4
[35] = test system: Human immunodeficiency virus 1; experiment: Antiviral activity against HIV1 NDK infected in U87.CD4 cells expressing human CXCR4 H281A mutant; format: functional, organism-based; details: Human immunodeficiency virus 1, NDK
[36] = test system: Human immunodeficiency virus 1; experiment: Antiviral activity against HIV1 NL43 infected in U87.CD4 cells expressing human wild type CXCR4; format: functional, organism-based; details: Human immunodeficiency virus 1, NL43, U87.CD4
[37] = molecular target: T4, C-X-C chemokine receptor type 4; experiment: (§15) Displacement of [125I]12G5 antibody from extracellular loop 2 of human CXCR4 A175F mutant expressed in COS7 cells; format: cell-based, COS-7
[38] = test system: C-X-C chemokine receptor type 4 (Homo sapiens), P61073 [A175F]; experiment: as §15; format: cell-based; details: COS-7
[39] = molecular target: C-X-C chemokine receptor type 4 (Homo sapiens, UniProt P61073, I259W); experiment: (§16) Displacement of [125I]12G5 antibody from transmembrane domain 6 of human CXCR4 I259W mutant expressed in COS7 cells; format: cell-based, COS-7
C-X-C chemokine receptor type 4 (Homo sapiens, UniProt P61073, I259W), sequence (P61073 whole entry I259W, the tested form may be a part): as the sequence (P61073 whole entry V196A, the tested form may be a part) above, with A196V, I259W counted along it

[40] = test system: C-X-C chemokine receptor type 4 (Homo sapiens), P61073 [I259W]; experiment: as §16; format: cell-based; details: COS-7
[41] = test system: Human immunodeficiency virus 1; experiment: Antiviral activity against HIV1 NL43 infected in U87.CD4 cells expressing human CXCR4 D171N/D262N mutant; format: functional, organism-based
[42] = test system: C-X-C chemokine receptor type 4 (Homo sapiens), P61073 [D262N]; experiment: (§17) Displacement of [125I]12G5 antibody from transmembrane domain 6 of human CXCR4 D262N mutant expressed in COS7 cells; format: cell-based; details: COS-7
C-X-C chemokine receptor type 4 (Homo sapiens), P61073 [D262N], sequence (P61073 whole entry D262N, the tested form may be a part): as the sequence (P61073 whole entry V196A, the tested form may be a part) above, with A196V, D262N counted along it

[43] = molecular target: C-X-C chemokine receptor type 4 (Homo sapiens, UniProt P61073, D262N); experiment: as §17; format: cell-based, COS-7
C-X-C chemokine receptor type 4 (Homo sapiens, UniProt P61073, D262N), sequence (P61073 whole entry D262N): as the sequence (P61073 whole entry V196A, the tested form may be a part) above, with A196V, D262N counted along it

Molecule c1ccc(CNCc2ccc(CN3CCCNCCNCCCNCC3)cc2)nc1 has a logIC50 [1] of -7.71, a Ki [2] of 200 nM and an IC50 [3] of 183000 nM. For the same molecule, the logKi [4] was -5.74, the Ki [5] was 1800 nM and the IC50 [6] was 4700 nM. It also gave a Ki [7] of 30 nM, a logIC50 [8] of -7.5 and a logIC50 [9] of -5.8. It also gave a Ki [10] of 1600 nM, an IC50 [11] of 1950 nM and a logKi [12] of -5.71. It also gave a Ki [13] of 2000 nM, a logKi [14] of -6.81 and a Ki [15] of 160 nM. The Activity [16] was “inactive”, the Ki [17] was 1200 nM and the logKi [18] was -5.94. For the same molecule, the logKi [19] was -4.94, the Ki [20] was 11000 nM and the logKi [21] was -3.29. The Ki [22] was 519000 nM, the logIC50 [23] was -7.43 and the Ki [24] was 40 nM. The Ki [25] was 1300 nM, the logIC50 [26] was -5.89 and the Ki [27] was 560 nM. For the same molecule, the logKi [28] was -6.25, the logIC50 [29] was -8.1 and the Ki [30] was 10 nM. The IC50 [31] was 164000 nM, the Ki [32] was 980 nM and the logKi [33] was -6.01. It also gave an IC50 [34] of 1570 nM, an IC50 [35] of 37 nM and an IC50 [36] of 36000 nM. It also gave a Ki [37] of 215000 nM, a logKi [38] of -3.67 and a Ki [39] of 18000 nM. The logKi [40] was -4.75, the Activity [41] was “Active” and the logKi [42] was -3.22. The Ki [43] was 600000 nM.
